Experimental data as given in ChEMBL document CHEMBL3580650, “Synthesis and Initial in Vivo Studies with [(11)C]SB-216763: The First Radiolabeled Brain Penetrative Inhibitor of GSK-3” (ACS Med Chem Lett, 2015).

What was measured:
[1] = Drug uptake in thalamus of rhesus monkey brain at 89 +/- 3 MBq, iv administered as bolus dose for 1 min measured over 90 mins post injection by MicroPET image analysis; assay type: ADME, organism-based, Macaca mulatta; conditions: in vivo
Thalamus = assay: Drug uptake in thalamus of Wistar rat brain at 48.8 MBq, iv administered as bolus dose for 30 secs measured over 120 mins post injection by MicroPET image analysis; assay type: ADME, organism-based; conditions: in vivo
Cerebellum = assay: Drug uptake in cerebellum of Wistar rat brain at 48.8 MBq, iv administered as bolus dose for 30 secs measured over 120 mins post injection by MicroPET image analysis; assay type: ADME, organism-based; conditions: in vivo
Cortex = assay: Drug uptake in cortex of Wistar rat brain at 48.8 MBq, iv administered as bolus dose for 30 secs measured over 120 mins post injection by MicroPET image analysis; assay type: ADME, organism-based; conditions: in vivo
Brain [2] = assay: Drug uptake in brain of Wistar rat at 48.8 MBq, iv administered as bolus dose for 30 secs measured at 3 mins post wash out by MicroPET image analysis; assay type: ADME, organism-based; conditions: in vivo, 0.05 h
Brain [3] = assay: Drug uptake in brain of rhesus monkey at 89 +/- 3 MBq, iv administered as bolus dose for 1 min measured at 5 mins post wash out by MicroPET image analysis; assay type: ADME, organism-based, Macaca mulatta; conditions: in vivo
[4] = Drug uptake in cerebellum of rhesus monkey brain at 89 +/- 3 MBq, iv administered as bolus dose for 1 min measured over 90 mins post injection by MicroPET image analysis; assay type: ADME, organism-based, Macaca mulatta; conditions: in vivo
[5] = Drug uptake in cortex of rhesus monkey brain at 89 +/- 3 MBq, iv administered as bolus dose for 1 min measured over 90 mins post injection by MicroPET image analysis; assay type: ADME, organism-based, Macaca mulatta; conditions: in vivo
Striatum [6] = assay: Drug uptake in striatum of rhesus monkey brain at 89 +/- 3 MBq, iv administered as bolus dose for 1 min measured over 90 mins post injection by MicroPET image analysis; assay type: ADME, organism-based, Macaca mulatta; conditions: in vivo
Striatum [7] = assay: Drug uptake in striatum of Wistar rat brain at 48.8 MBq, iv administered as bolus dose for 30 secs measured over 120 mins post injection by MicroPET image analysis; assay type: ADME, organism-based; conditions: in vivo

- Drug uptake [1]: Active
- Drug uptake (Thalamus): Active
- Drug uptake (Cerebellum): Active
- Drug uptake (Cortex): Active
- SUV (Brain [2]): 2.5
- SUV (Brain [3]): 1.9
- Drug uptake [4]: Active
- Drug uptake [5]: Active
- Drug uptake (Striatum [6]): Active
- Drug uptake (Striatum [7]): Active
Structure (SMILES): [11CH3]n1cc(C2=C(c3ccc(Cl)cc3Cl)C(=O)NC2=O)c2ccccc21
